Assay results reported in ChEMBL document CHEMBL1201862, “PubChem BioAssay data set” (2004).
The source made the active and inactive calls.

Experiments:
[1] = target: Cyclin-dependent kinase 2 (Homo sapiens, UniProt P24941); experiment: CDK2 kinase inhibitors, off-target check, dose response, selectivity assay for Dyrk1A inhibitor project, biochemical, cherry-picked samples (AID 602127)
[2] = target: Dual specificity protein kinase CLK1 (Homo sapiens, UniProt P49759); experiment: CLK1 kinase inhibitors, off-target check, dose response, selectivity assay for Dyrk1A inhibitor project, biochemical, cherry-picked samples (AID 588811)
Dual specificity protein kinase CLK1, sequence (P49759 whole entry): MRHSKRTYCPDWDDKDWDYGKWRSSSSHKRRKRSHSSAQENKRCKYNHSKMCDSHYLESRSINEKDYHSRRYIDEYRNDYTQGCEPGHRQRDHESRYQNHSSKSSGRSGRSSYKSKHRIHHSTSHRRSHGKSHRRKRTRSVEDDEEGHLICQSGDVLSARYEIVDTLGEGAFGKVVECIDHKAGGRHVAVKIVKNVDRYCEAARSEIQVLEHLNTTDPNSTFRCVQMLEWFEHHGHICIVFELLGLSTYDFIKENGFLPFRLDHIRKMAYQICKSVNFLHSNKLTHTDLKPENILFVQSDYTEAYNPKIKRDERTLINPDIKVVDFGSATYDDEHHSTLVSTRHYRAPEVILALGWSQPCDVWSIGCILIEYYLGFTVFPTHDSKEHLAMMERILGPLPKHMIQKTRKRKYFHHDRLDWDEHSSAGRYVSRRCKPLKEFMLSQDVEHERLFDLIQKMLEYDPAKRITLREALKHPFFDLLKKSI

BJ [3] = experiment: cytotoxicity toward BJ-TERT fibroblasts, dose response, cell-based, RAS-independent, luminescence (AID 1933); type: functional, Homo sapiens; details: Homo sapiens, BJ
BJ [4] = experiment: cells; type: functional, cell-based, Homo sapiens; details: Homo sapiens, BJ
[5] = target: T1, Short transient receptor potential channel 4 (Mus musculus, UniProt Q9QUQ5); experiment: mouse TRPC4 channel inhibitors, dose response, cell-based, HEK293 TRPC4/mu-opioid, Fluo-4 calcium (AID 434942); type: functional;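 note: potency of inhibitors blocking the TRPC4 calcium response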
T1 sequence (Q9QUQ5 whole entry): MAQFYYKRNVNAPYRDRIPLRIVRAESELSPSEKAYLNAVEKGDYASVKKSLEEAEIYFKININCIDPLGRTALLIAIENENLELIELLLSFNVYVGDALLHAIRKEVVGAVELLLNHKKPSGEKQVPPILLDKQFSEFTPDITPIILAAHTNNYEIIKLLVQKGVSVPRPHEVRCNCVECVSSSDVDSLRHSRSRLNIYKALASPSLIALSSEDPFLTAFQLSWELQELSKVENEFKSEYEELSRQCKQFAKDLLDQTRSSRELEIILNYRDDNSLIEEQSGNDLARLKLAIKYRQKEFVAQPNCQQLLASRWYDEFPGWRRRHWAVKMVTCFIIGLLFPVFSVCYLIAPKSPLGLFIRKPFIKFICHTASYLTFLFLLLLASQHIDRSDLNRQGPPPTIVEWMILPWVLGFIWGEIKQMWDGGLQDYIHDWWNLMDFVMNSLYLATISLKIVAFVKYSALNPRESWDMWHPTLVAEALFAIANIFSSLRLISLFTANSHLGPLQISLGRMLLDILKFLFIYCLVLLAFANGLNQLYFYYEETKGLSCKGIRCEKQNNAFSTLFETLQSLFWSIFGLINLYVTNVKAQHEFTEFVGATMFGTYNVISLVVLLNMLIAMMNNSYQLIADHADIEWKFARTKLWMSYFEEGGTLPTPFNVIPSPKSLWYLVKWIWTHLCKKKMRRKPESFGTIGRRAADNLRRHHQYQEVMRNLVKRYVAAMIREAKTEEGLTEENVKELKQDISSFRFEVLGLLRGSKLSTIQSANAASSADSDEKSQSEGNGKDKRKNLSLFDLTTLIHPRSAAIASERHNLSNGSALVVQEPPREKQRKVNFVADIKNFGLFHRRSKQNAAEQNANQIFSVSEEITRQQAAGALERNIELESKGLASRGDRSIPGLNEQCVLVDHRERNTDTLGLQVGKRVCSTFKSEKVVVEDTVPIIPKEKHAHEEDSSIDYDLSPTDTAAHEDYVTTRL

[6] = target: T2, Rac GTPase-activating protein 1 (Homo sapiens, UniProt Q9H0H5); experiment: MgcRacGAP GTPase-activating activity inhibitors, confirmation, biochemical, ADP Hunter fluorescence, primary and confirmatory (AID 624330); type: functional
T2 sequence (Q9H0H5 whole entry): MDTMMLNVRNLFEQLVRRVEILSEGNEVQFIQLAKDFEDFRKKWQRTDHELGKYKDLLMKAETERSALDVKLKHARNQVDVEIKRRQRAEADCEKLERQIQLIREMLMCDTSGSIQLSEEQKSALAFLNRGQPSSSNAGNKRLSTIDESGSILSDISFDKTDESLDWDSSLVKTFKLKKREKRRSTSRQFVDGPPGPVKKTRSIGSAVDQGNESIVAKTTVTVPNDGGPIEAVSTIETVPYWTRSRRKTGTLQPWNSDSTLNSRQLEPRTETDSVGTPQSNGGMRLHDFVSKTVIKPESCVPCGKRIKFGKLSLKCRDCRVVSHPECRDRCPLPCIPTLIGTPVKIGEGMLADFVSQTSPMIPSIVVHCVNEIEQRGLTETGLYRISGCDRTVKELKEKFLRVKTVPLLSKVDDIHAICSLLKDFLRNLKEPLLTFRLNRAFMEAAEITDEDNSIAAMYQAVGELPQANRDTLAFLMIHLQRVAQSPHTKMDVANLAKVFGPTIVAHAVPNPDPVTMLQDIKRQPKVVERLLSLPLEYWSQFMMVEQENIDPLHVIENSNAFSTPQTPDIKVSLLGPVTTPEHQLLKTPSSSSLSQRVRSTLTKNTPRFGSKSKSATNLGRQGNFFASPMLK

[7] = HeLa cell cytotoxicity, dose response, cytotoxicity control for MgcRacGAP inhibitor project (AID 624300); type: functional
BJ [8] = experiment: cytotoxicity toward Ras-transformed BJeLR fibroblasts, dose response, cell-based, alamar blue fluorescence, cherrypicked samples (AID 2631); type: functional; details: Homo sapiens;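 note: confirmatory dose-response assay in RAS-dependent BJ fibroblasts engineered with TERT, LT and ST, with cytotoxicity read by fluorescence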
[9] = cytotoxicity toward DRD oncogenic fibroblasts, dose response, cell-based, non-viral oncogenic, luminescence (AID 1934); type: functional; details: Homo sapiens
[10] = target: T3, DNA repair protein RAD52 homolog (Homo sapiens, UniProt P43351); type: functional, biochemical
T3 sequence (P43351 whole entry): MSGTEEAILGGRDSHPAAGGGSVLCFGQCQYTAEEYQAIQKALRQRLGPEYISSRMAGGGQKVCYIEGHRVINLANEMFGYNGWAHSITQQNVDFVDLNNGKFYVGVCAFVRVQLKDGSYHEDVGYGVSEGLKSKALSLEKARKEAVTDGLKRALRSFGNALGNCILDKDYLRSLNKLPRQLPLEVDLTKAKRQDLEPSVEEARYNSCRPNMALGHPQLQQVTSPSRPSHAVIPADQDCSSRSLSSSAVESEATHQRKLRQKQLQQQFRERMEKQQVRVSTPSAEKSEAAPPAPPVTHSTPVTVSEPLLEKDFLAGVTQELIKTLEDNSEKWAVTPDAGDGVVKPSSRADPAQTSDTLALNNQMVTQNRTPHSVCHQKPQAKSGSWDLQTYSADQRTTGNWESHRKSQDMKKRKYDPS

BJ [11] = experiment: cytotoxicity toward BJ-TERT-LT-ST fibroblasts, dose response, cell-based, RAS-independent, luminescence (AID 1935); type: functional, Homo sapiens; details: Homo sapiens, BJ;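 note: BJ fibroblasts immortalized with TERT plus LT and ST oncogenes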
Paired box protein Pax-8 = Paired box protein Pax-8 (Homo sapiens, UniProt Q06710); experiment: inhibitors of PAX8-driven TPO luciferase reporter, dose response, RMG-I cells, cherry-pick (AID 687027); type: functional, cell-based;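 note: luciferase reporter driven by Pax8 target thyroperoxidase promoter measured by SteadyGlo luminescence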
Paired box protein Pax-8, sequence (Q06710 whole entry): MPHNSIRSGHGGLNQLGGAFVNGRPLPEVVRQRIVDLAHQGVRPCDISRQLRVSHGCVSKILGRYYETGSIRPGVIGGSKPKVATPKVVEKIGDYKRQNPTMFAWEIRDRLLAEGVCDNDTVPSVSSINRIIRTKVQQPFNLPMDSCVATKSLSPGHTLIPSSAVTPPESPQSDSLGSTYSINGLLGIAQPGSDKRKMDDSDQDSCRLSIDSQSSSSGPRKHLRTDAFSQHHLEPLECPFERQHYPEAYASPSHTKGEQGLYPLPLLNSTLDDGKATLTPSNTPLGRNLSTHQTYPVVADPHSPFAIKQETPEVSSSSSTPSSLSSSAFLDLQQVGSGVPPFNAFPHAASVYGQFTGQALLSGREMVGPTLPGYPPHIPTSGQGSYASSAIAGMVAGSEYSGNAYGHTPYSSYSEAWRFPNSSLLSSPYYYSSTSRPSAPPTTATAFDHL

[12] = non-specific cell cytotoxicity, dose response, cytotoxicity control for PAX8 inhibitor project, plate reader, dry powder samples (AID 743021); type: functional, cell-based
[13] = cytotoxicity in HEK-293T cells, dose response, cytotoxicity control for TCR NF-kB inhibitor project, luminescence, T-cell screen hits (AID 489026); type: functional, cell-based;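 note: cells exposed to compound about 14 hours before the viability readout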
Jurkat = experiment: SAR Analysis of small molecule inhibitors of both B-cell and T-cell specific antigen receptor-induced NF-kB activation in a Jurkat cell line using a luminescence assay. [Related pubchem assays (depositor defined):AID435003, AID435022, AID465, AID489029]; type: functional, cell-based; details: Homo sapiens
[14] = Luminescence-based dose response cell-based high throughput screening assay for cytotoxic compounds using the IEC-6 intestinal epithelial cell line. [Related pubchem assays: 1858 (Summary AID.), 1825 (Counterscreen.), 1907 (Confirmation screen.)]; type: functional
[15] = control 3'UTR Renilla luciferase suppression, dose response, counter-screen for Shn3 inhibitor project, cell-based, Clone20-Shn3RL, cherry-picked (AID 624133); type: functional
[16] = Shn3 3'UTR reporter inhibitors, dose response, cell-based, Clone20 osteoblasts, firefly luciferase, cherry-picked (AID 624132); type: functional;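 note: firefly luciferase luminescence from reporter carrying the Shn3 3'UTR in osteoblasts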
[17] = inhibitors of intracellular T. cruzi replication, confirmation, NIH3T3 host cells, beta-gal luminescence (AID 2044); type: functional, cell-based;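 note: intracellular parasites grown in NIH/3T3 mouse fibroblasts as host cells; luminescent beta-galactosidase reporter signal from transgenic T. cruzi replicating inside host cells; inhibitors lower the luminescence signal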
[18] = Fluorescence-based cell-based high throughput dose response assay for inhibitors of the interaction of nucleotide-binding oligomerization domain containing 2 (NOD2) and the receptor-interacting serine-threonine kinase 2 (RIPK2).; type: functional; details: Homo sapiens
[19] = HepG2 cell cytotoxicity, dose response, cytotoxicity control for Shn3 inhibitor project, CellTiter-Glo, cherry-picked (AID 624134); type: functional, cell-based
[20] = tested on: Streptococcus sp. 'group A'; experiment: growth inhibition of control SK(-) GAS strain, dose response, counter-screen for streptokinase expression inhibitor project, luminescence, kanamycin, BacTiterGlo, confirmation (AID 1900); type: functional, organism-based
HEK293 [21] = experiment: SAR Analysis of small molecule inhibitors of both B-cell and T-cell specific antigen receptor-induced NF-kB activation in a HEK-293T cell line using a luminescence assay. [Related pubchem assays (depositor defined):AID435003, AID435022, AID465, AID489019, AID489029]; type: functional, cell-based; details: Homo sapiens
[22] = target: T4, Type-1 angiotensin II receptor (Homo sapiens, UniProt P30556); experiment: AT1 receptor antagonists, dose response, selectivity assay for APJ receptor antagonist project, cell-based, uHTS hits (AID 463214); type: functional;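 note: antagonist potency against angiotensin II stimulated AT1 response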
T4 sequence (P30556 whole entry): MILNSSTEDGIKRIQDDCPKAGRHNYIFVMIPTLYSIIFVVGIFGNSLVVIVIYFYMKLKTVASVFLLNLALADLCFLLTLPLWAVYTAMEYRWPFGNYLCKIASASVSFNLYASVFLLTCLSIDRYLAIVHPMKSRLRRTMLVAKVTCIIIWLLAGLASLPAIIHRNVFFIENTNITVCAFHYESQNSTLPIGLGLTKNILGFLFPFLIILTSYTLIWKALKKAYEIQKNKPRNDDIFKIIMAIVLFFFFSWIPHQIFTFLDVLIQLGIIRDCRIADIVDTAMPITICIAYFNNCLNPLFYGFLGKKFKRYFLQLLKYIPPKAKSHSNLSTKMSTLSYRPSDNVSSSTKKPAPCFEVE

Streptococcus = experiment: Group A Streptococcus viability loss, dose response, counter-screen for streptokinase expression inhibitor project, luminescence, BacTiterGlo (AID 1915); type: functional, organism-based;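 note: potency for reduction of bacterial viability or growth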
[23] = cytotoxicity toward NIH3T3 fibroblasts, dose response, counter-screen, cell-based, ATP luminescence, mouse fibroblasts (AID 2010); type: functional;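 note: cells exposed to compound for about 90 hours before reading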
HEK293 [24] = experiment: cytotoxicity in HEK293T NF-kB-Luc cells, SAR follow-up, cytotoxicity control for NF-kB activator project, cell-based, resazurin fluorescence (AID 493251); type: functional; details: Homo sapiens
Streptokinase A = target: T5, Streptokinase A (Streptococcus pyogenes serotype M1, UniProt P10520); experiment: S. pyogenes streptokinase expression inhibitors, potency, dose response, plasminogen activation absorbance, OD405 (AID 1914); type: functional, Streptococcus pyogenes M1 GAS;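 note: secreted streptokinase activity via plasminogen activation per viability signal from cell pellet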
T5 sequence (P10520 whole entry): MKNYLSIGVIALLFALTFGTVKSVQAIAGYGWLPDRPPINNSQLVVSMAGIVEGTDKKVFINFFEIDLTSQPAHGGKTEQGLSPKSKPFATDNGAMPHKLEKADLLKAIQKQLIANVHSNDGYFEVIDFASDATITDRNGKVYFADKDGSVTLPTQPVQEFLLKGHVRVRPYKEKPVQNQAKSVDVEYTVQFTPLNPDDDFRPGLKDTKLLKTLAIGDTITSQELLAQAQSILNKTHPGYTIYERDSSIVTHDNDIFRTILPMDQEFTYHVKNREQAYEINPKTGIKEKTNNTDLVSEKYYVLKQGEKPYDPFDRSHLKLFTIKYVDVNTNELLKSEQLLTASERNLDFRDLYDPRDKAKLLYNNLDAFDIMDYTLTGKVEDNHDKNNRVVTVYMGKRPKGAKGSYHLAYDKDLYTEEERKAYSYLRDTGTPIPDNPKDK

Beta-galactosidase = Beta-galactosidase (Escherichia coli, UniProt Q8VNN2); experiment: PubChem AID 485352; type: functional
Beta-galactosidase, sequence (Q8VNN2 whole entry): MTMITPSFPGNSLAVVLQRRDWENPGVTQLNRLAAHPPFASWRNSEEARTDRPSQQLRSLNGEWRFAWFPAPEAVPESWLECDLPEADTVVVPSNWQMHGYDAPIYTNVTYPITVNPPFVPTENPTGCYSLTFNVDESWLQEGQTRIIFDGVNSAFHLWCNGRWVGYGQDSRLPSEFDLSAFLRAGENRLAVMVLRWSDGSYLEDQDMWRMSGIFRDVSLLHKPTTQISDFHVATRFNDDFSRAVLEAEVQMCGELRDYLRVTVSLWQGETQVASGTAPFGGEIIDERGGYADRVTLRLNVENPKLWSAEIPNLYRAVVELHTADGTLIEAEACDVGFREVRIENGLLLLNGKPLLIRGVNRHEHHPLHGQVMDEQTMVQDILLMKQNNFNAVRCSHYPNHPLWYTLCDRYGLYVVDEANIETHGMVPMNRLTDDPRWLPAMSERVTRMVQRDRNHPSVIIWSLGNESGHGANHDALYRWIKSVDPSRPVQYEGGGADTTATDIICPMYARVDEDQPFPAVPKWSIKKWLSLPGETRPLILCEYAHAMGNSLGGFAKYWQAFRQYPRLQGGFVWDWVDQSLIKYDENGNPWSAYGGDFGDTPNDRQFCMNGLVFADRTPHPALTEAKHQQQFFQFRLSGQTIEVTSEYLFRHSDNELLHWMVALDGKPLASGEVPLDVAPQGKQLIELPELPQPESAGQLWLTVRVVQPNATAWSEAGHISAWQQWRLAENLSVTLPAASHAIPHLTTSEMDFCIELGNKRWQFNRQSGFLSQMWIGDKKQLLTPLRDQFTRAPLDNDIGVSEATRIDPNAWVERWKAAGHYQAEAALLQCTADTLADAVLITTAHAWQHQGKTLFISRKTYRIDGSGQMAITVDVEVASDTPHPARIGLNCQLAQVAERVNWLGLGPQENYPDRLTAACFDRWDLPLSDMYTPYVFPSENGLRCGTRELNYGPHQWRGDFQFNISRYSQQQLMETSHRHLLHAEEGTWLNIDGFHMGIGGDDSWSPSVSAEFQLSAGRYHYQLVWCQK

[25] = target: T6, Heat shock factor protein 1 (Mus musculus, UniProt P38532); experiment: inhibition of MG132-induced HSE-luciferase signal, confirmation, cell-based, NIH3T3, luminescence, dose retest (AID 2382); type: functional;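 note: NIH3T3 fibroblasts with HSF1-driven luciferase reporter stressed by proteasome inhibitor MG132; luminescence from HSF1-driven luciferase expression after 8 hours of MG132 stress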
T6 sequence (P38532 whole entry): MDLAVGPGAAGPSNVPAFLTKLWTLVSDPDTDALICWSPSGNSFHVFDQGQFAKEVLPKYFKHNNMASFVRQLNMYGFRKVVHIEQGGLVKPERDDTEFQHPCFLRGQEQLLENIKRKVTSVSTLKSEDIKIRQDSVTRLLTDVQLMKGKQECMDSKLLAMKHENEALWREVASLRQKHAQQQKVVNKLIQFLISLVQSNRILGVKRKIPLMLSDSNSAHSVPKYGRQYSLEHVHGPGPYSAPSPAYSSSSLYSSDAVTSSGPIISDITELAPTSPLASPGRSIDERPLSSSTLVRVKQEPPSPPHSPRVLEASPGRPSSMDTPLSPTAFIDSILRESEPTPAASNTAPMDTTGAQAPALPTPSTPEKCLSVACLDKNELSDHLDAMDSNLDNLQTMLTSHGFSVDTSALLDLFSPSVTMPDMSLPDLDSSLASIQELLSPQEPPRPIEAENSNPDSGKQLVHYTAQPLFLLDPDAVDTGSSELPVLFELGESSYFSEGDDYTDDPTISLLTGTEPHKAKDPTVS

Cc1c(-c2ccnc(NCc3cccnc3)n2)sc(=O)n1C
active: AC50 [1] 15.1 µM | AC50 [2] 0.116 µM

Cc1cc(C)c2nc(C)cc(N/N=C/c3ccc(O)cc3)c2c1
active: EC50 (BJ [4]) 5.87 µM | EC50 [5] 5.96 µM | IC50 [6] 18.2 µM | CC50 [7] 13.3 µM | EC50 (BJ [8]) 0.555 µM | AC50 [10] 0.939 µM | AC50 (Paired box protein Pax-8) 9.08 µM | AC50 [12] 50.5 µM | IC50 [13] 18.1 µM
inconclusive: EC50 (BJ [3]) 2.56 µM | EC50 [9] 5.11 µM | EC50 (BJ [11]) 2.78 µM

COc1cc(NS(=O)(=O)c2ccc(C)cc2)c2ncccc2c1
active: IC50 (Jurkat) 1.52 µM | IC50 [14] 1.58 µM | AC50 [15] 13.8 µM | AC50 [16] 3.35 µM | EC50 [17] 0.524 µM | IC50 [18] 5.53 µM | AC50 [19] 9.77 µM | EC50 [20] 2.6 µM | IC50 [22] 3.88 µM | EC50 (Streptococcus) 21.7 µM | EC50 [23] 1.45 µM | EC50 [25] 24.3 µM
inactive: IC50 (HEK293 [21]) > 79 µM | IC50 (HEK293 [24]) > 80 µM | EC50 (Beta-galactosidase) > 40 µM | IC50 [13] > 80 µM
> 150 µM (not active): EC50 (Streptokinase A)
